In ChEMBL document CHEMBL4251622, “Design, synthesis, and biological evaluation of polo-like kinase 1/eukaryotic elongation factor 2 kinase (PLK1/EEF2K) dual inhibitors for regulating breast cancer cells apoptosis and autophagy” (Eur J Med Chem, 2018):
Activity calls are given as the source filed them. No cut-off for these calls is given here.

What was measured:
[1] = molecular target: T1, Eukaryotic elongation factor 2 kinase (Homo sapiens) (UniProt O00418); assay: Inhibition of EEF2K-meidated EEF2 phosphorylation in human BT-483 cells at 5 to 10 uM by Western blot analysis; format: cell-based
T1 sequence (whole entry): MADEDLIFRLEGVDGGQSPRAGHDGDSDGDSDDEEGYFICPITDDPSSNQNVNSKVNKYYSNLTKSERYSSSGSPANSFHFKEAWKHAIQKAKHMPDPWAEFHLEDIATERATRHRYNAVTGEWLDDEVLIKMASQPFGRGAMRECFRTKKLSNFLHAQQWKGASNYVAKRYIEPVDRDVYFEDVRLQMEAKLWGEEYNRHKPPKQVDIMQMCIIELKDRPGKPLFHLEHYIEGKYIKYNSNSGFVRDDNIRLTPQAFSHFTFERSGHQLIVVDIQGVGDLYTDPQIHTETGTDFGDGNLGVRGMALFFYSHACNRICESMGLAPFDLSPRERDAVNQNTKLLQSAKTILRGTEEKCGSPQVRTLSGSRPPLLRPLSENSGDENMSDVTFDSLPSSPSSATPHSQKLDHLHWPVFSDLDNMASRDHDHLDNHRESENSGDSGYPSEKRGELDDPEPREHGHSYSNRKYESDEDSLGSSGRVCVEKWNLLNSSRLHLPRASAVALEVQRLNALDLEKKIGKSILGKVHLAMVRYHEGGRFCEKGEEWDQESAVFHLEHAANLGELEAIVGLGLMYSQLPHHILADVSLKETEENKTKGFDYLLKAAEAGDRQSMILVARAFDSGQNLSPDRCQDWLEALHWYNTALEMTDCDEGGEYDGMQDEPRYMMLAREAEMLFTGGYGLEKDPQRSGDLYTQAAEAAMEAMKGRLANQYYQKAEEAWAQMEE

[2] = molecular target: Protein kinase C epsilon type (Homo sapiens) (UniProt Q02156); assay: Inhibition of wild-type human partial length PRKCE (A378 to P737 residues) expressed in mammalian expression system assessed as residual activity at 1 uM by Kinomescan method relative to control
[3] = molecular target: Testis-specific serine/threonine-protein kinase 1 (Homo sapiens) (UniProt Q9BXA7); assay: Inhibition of wild-type human full length TSSK1B (M1 to Q367 residues) expressed in bacterial expression system assessed as residual activity at 1 uM by Kinomescan method relative to control
[4] = molecular target: Serine/threonine-protein kinase PLK1 (Homo sapiens, UniProt P53350); assay: Inhibition of full length human PLK1 at 20 uM using casein as substrate after 40 mins in presence of [gamma-33P]-ATP by radiometric assay relative to control
[5] = molecular target: Phosphatidylinositol 4-phosphate 3-kinase C2 domain-containing subunit beta (Homo sapiens) (UniProt O00750); assay: Inhibition of wild-type human partial length PIK3C2B (M1 to L1634 residues) expressed in mammalian expression system assessed as residual activity at 1 uM by Kinomescan method relative to control
[6] = molecular target: Proto-oncogene tyrosine-protein kinase receptor Ret (Homo sapiens) (UniProt P07949); assay: Inhibition of wild-type human partial length RET (E713 to D1014 residues) expressed in bacterial expression system assessed as residual activity at 1 uM by Kinomescan method relative to control
[7] = test system: Mast/stem cell growth factor receptor Kit (Homo sapiens), P10721 [D816V]; assay: Inhibition of human partial length KIT D816V mutant (I571 to D952 residues) expressed in bacterial expression system assessed as residual activity at 1 uM by Kinomescan method relative to control
[8] = test system: Mast/stem cell growth factor receptor Kit (Homo sapiens), P10721 [V559D,T670I]; assay: Inhibition of human partial length KIT V559D/T670I double mutant (Y545 to D952 residues) expressed in bacterial expression system assessed as residual activity at 1 uM by Kinomescan method relative to control
[9] = molecular target: Macrophage colony-stimulating factor 1 receptor (Homo sapiens) (UniProt P07333); assay: Inhibition of wild-type human partial length CSF1R (I564 to S939 residues) expressed in bacterial expression system assessed as residual activity at 1 uM by Kinomescan method relative to control
[10] = molecular target: Hepatocyte growth factor receptor (Homo sapiens) (UniProt P08581); assay: Inhibition of wild-type human partial length MET (D1010 to S1367 residues) expressed in bacterial expression system assessed as residual activity at 1 uM by Kinomescan method relative to control
BT-483 [11] = assay: Effect on FADD protein expression in human BT-483 cells at 5 to 10 uM by Western blot analysis; format: functional, cell-based
[12] = molecular target: Tyrosine-protein kinase BTK (Homo sapiens) (UniProt Q06187); assay: Inhibition of wild-type human full length BTK (M1 to S659 residues) expressed in mammalian expression system assessed as residual activity at 1 uM by Kinomescan method relative to control
BT-483 [13] = assay: Effect on total EEF2 protein expression in human BT-483 cells at 5 to 10 uM by Western blot analysis; format: ADME, cell-based; settings: bt-483, 10 µM
[14] = molecular target: MAP kinase-interacting serine/threonine-protein kinase 2 (Homo sapiens) (UniProt Q9HBH9); assay: Inhibition of wild-type human partial length MKNK2 (G63 to S388 residues) expressed in mammalian expression system assessed as residual activity at 1 uM by Kinomescan method relative to control
[15] = molecular target: Serine/threonine-protein kinase pim-2 (Homo sapiens) (UniProt Q9P1W9); assay: Inhibition of wild-type human partial length PIM2 (M1 to E291 residues) expressed in bacterial expression system assessed as residual activity at 1 uM by Kinomescan method relative to control
[16] = molecular target: Insulin-like growth factor 1 receptor (Homo sapiens) (UniProt P08069); assay: Inhibition of wild-type human partial length IGF1R (L972 to D1294 residues) expressed in bacterial expression system assessed as residual activity at 1 uM by Kinomescan method relative to control
[17] = molecular target: Serine/threonine-protein kinase DCLK1 (Homo sapiens) (UniProt O15075); assay: Inhibition of wild-type human partial length DCAMKL1 (L270 to A662 residues) expressed in mammalian expression system assessed as residual activity at 1 uM by Kinomescan method relative to control
[18] = molecular target: Fibroblast growth factor receptor 4 (Homo sapiens) (UniProt P22455); assay: Inhibition of wild-type human partial length FGFR4 (G402 to E713 residues) expressed in bacterial expression system assessed as residual activity at 1 uM by Kinomescan method relative to control
[19] = molecular target: Death-associated protein kinase 1 (Homo sapiens) (UniProt P53355); assay: Inhibition of wild-type human partial length DAPK1 (M1 to F296 residues) expressed in bacterial expression system assessed as residual activity at 1 uM by Kinomescan method relative to control
[20] = molecular target: Tyrosine-protein kinase JAK3 (Homo sapiens) (UniProt P52333); assay: Inhibition of wild-type human partial length JAK3 JH1 catalytic domain (I781 to S1124 residues) expressed in mammalian expression system assessed as residual activity at 1 uM by Kinomescan method relative to control
BT-483 [21] = assay: Cell cycle arrest in human BT-483 cells assessed as accumulation at sub-G1 phase at 5 to 10 uM after 24 to 72 hrs; format: functional, cell-based

Sequence of Serine/threonine-protein kinase PLK1 (P53350 whole entry, the tested form may be a part): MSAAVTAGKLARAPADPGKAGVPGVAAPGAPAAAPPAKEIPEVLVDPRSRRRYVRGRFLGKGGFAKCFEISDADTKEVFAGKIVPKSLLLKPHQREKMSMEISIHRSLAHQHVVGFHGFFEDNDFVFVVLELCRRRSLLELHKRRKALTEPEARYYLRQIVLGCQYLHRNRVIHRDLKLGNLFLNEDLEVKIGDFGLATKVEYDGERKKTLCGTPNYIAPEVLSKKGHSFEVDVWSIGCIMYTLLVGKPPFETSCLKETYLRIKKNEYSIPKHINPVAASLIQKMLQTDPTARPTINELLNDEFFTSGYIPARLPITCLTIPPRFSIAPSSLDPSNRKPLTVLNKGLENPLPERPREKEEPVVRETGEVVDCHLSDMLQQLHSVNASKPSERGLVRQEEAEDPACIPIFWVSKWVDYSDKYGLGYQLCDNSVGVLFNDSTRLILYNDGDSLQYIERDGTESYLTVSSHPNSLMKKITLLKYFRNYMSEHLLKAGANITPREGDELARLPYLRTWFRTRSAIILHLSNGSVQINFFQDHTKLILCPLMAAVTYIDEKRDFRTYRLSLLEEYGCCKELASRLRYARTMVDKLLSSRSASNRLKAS
Sequence of Proto-oncogene tyrosine-protein kinase receptor Ret (Homo sapiens) (P07949 whole entry, the tested form may be a part): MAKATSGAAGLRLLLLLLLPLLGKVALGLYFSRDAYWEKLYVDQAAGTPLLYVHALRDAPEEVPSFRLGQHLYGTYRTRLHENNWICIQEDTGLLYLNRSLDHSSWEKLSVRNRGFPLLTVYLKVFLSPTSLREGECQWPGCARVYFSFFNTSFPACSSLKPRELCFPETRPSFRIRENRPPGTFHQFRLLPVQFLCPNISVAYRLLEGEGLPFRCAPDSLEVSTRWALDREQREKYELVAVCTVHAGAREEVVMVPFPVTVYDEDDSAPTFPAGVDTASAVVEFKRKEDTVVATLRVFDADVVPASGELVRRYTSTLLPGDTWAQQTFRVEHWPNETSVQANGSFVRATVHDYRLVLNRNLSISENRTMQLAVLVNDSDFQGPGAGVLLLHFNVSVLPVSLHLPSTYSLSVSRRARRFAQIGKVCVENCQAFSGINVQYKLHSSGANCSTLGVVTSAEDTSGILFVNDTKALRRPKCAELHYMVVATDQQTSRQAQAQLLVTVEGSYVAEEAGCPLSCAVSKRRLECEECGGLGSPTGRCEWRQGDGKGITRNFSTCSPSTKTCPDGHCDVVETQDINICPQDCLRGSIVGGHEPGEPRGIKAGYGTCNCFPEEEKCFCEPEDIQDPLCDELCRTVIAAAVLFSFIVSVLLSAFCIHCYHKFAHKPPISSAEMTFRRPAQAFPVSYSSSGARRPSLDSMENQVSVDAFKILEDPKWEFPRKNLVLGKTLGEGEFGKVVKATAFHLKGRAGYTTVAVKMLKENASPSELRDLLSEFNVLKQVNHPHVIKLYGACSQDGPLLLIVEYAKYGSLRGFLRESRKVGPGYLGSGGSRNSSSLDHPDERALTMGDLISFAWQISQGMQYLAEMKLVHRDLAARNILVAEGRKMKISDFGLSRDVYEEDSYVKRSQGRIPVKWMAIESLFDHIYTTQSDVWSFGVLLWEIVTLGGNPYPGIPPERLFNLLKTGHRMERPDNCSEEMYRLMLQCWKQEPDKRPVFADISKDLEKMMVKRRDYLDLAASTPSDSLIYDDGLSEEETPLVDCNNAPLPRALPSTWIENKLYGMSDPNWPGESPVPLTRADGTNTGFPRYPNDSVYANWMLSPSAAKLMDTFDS
Sequence of Death-associated protein kinase 1 (Homo sapiens) (P53355 whole entry, looked up, the tested form may be a part): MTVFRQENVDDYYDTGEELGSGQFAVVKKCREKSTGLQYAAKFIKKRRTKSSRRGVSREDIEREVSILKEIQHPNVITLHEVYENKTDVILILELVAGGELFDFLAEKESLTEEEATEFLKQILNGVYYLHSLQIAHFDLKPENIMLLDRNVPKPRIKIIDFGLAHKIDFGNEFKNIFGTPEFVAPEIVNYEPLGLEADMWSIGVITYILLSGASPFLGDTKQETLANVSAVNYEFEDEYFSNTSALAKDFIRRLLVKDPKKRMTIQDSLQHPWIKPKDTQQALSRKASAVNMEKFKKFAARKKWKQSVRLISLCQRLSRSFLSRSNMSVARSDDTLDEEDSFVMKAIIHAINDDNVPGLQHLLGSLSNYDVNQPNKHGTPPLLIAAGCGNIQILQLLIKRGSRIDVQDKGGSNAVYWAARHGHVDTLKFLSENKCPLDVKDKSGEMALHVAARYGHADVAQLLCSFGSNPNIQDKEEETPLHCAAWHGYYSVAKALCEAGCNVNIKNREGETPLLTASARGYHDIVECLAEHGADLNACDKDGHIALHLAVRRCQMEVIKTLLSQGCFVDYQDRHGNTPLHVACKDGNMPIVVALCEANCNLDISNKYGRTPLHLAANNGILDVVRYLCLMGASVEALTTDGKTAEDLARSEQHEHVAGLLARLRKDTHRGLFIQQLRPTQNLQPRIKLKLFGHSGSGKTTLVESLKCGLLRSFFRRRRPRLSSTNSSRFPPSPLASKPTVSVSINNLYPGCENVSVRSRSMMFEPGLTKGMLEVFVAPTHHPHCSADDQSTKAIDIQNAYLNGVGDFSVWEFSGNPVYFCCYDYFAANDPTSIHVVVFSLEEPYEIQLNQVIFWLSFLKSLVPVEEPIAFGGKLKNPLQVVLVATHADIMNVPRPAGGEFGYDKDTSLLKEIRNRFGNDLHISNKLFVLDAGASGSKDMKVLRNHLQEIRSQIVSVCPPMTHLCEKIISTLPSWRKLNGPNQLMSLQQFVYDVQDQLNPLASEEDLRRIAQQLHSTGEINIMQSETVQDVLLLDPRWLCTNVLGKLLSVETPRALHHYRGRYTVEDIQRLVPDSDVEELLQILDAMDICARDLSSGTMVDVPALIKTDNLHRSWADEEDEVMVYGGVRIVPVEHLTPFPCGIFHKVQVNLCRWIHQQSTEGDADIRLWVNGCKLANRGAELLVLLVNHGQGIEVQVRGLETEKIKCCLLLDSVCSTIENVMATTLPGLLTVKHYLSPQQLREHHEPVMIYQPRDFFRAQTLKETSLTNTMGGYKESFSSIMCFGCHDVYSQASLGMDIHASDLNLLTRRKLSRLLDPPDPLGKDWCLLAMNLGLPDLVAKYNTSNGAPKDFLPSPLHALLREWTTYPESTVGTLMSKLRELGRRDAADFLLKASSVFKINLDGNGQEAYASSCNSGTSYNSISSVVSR
Sequence of MAP kinase-interacting serine/threonine-protein kinase 2 (Homo sapiens) (Q9HBH9 whole entry, looked up, the tested form may be a part): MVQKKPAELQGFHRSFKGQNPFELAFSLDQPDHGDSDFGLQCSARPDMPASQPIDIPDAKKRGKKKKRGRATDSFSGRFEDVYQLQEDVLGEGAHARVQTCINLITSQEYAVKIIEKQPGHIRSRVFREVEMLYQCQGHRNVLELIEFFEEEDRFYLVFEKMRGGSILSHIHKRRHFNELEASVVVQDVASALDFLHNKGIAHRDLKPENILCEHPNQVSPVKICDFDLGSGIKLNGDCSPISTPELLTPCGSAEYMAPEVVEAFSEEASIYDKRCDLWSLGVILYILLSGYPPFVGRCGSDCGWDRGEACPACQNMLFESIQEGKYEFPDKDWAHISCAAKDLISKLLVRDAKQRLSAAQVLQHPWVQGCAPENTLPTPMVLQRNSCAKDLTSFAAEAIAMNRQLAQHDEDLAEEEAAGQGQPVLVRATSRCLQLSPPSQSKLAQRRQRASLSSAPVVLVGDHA
Sequence of Serine/threonine-protein kinase pim-2 (Homo sapiens) (Q9P1W9 whole entry, looked up, the tested form may be a part): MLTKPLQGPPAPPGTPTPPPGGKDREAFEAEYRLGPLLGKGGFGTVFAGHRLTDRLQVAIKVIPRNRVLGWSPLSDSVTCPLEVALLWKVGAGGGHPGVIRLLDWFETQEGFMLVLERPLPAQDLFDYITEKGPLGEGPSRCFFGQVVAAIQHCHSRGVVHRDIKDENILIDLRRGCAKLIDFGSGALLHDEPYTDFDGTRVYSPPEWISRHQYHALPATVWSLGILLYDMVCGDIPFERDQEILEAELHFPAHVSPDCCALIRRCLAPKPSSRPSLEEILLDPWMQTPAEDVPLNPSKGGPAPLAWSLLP
Sequence of Protein kinase C epsilon type (Homo sapiens) (Q02156 whole entry, the tested form may be a part): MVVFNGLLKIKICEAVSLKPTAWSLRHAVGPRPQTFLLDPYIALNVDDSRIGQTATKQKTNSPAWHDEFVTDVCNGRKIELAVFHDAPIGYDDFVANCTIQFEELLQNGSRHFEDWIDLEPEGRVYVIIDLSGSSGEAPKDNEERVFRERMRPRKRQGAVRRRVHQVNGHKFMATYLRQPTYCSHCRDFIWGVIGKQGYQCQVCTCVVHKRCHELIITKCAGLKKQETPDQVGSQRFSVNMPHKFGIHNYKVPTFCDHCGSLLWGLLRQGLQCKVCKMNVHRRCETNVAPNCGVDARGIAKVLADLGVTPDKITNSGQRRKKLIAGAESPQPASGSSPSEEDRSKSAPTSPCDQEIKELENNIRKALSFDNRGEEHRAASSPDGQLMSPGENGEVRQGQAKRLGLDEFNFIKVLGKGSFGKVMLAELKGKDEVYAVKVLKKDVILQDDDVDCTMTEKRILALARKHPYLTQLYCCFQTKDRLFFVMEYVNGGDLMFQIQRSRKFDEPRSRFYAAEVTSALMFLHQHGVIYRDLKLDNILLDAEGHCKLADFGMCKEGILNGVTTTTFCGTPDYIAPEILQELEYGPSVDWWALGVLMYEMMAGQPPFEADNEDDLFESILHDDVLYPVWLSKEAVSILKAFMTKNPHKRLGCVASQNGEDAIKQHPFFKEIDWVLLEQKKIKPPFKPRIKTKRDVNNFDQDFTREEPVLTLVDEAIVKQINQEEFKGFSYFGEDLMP
Sequence of Testis-specific serine/threonine-protein kinase 1 (Homo sapiens) (Q9BXA7 whole entry, the tested form may be a part): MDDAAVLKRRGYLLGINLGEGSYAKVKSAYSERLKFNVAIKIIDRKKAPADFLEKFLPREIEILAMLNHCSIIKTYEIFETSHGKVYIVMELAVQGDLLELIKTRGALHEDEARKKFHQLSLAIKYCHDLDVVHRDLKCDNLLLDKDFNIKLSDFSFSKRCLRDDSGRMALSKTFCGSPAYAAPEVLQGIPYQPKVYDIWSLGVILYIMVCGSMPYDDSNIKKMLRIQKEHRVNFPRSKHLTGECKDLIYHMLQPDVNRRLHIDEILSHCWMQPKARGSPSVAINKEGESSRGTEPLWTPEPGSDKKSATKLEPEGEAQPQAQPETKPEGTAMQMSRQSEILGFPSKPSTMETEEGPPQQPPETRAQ

SMILES: CCNc1cc(-c2ccc(NC(=O)Nc3cccc(Cl)c3)cc2C(F)(F)F)ccn1
- inhibition [1]: Active
- Activity [2]: 67%
- Activity [3]: 64%
- inhibition [4]: 94.9%
- Activity [5]: 97%
- Activity [6]: 64%
- Activity [7]: 84%
- Activity [8]: 93%
- Activity [9]: 85%
- Activity [10]: 73%
- Activity (BT-483 [11]): inactive
- Activity [12]: 83%
- Activity (BT-483 [13]): Non-Toxic
- Activity [14]: 73%
- Activity [15]: 88%
- Activity [16]: 78%
- Activity [17]: 98%
- Activity [18]: 95%
- Activity [19]: 93%
- Activity [20]: 98%
- Activity (BT-483 [21]): Active
